Results: patent publication US11629179B2, “TWEAK-receptor agonists for use in combination with immunotherapy of a cancer” (Stichting Het Nederlands Kanker Instituut - Antoni van …, priority 2018, dated 2023)

How the values were obtained:
cIAP1/2 = details: Benetatos et al., 2014; FIG. 11C; cited from earlier work
[1] = tested on: panel of 11 human melanoma and lung cancer cell lines; test: MART-1 T cell cytotoxicity assay in a panel of tumor cell lines; type: cell-based
Experimental: (§1) 1.2×10^5 tumor cells were seeded per well in 12-well culture plates (Greiner). CD8 T cells were admixed in serial dilutions (two-fold, starting at a 1:1 ratio). After 24 hours, T cells were washed away. After a further 4 days, plates were fixed and stained for 1 hour using a crystal violet solution containing 0.1% crystal violet (Sigma) and 50% methanol (Honeywell). For quantification, remaining crystal violet was solubilized in 10% acetic acid (Sigma). Absorbance of this solution was measured on an Infinite 200 Pro spectrophotometer (Tecan) at 595 nm. In select experiments, tumor viability data was assessed with CellTiter-Blue (Promega) following manufacturer's instructions. In indicated experiments, 1 uM of birinapant (Selleck Chemicals) in DMSO (Sigma) was added during co-cultures. For Incucyte (Incucyte Zoom, Essen Bioscience) experiments, 5×10^3 tumor cells were seeded per well in 96-well culture plates (Greiner). CD8 T cells were admixed in indicated ratios and a Caspase-3/7 dye (Essen Bioscience) was added. Growth of these co-cultures was followed for 48 hours. […] In indicated experiments, enavatuzumab (indicated concentrations; Creative Biolabs) in the presence or absence of protein G (50 μg/mL; Thermo Fisher Scientific) was added. To cluster enavatuzumab, cells were pretreated for 1 hour with enavatuzumab, then protein G was added for a further 7 hours. […]

BLM [2] = test: NSG murine xenograft of BLM clones with ACT of MART-1 T cells; type: in vivo, mouse
Experimental: For xenograft studies, 1×10^6 D10 or BLM tumor cells were admixed with Matrigel (Corning) and injected subcutaneously into NSG-β2M^null mice (The Jackson Laboratory). Growth was monitored three times per week with calipers, and tumor size was calculated using the following formula: ½×length (mm)×width (mm). When tumors reached indicated sizes, mice were randomized over different treatment groups in a blinded fashion and were administered 5×10^6 human CD8 T cells, intravenously in the tail vein. In vivo persistence of T cells was stimulated by administering 100.000 U IL-2 (Proleukin, Novartis) intraperitoneally daily for three consecutive days. In selected experiments, birinapant (MedChem Express) was administered intraperitoneally once every three days. […] In selected experiments, the PD-1-blocking antibody nivolumab (Slotervaart Hospital) was given once weekly (5 mg/kg). For studies in immunocompetent mice, 3×10^5 D4M.3A cells were injected subcutaneously into C57BI/6J mice (Janvier) and tumor growth was monitored three times per week with calipers.
(§2) To prepare lysates, snapfrozen tumor piecesd were weighed and lysed in RIPA buffer (50 mM TRIS pH 8.0, 150 mM NaCl, 1% Nonidet P40, 0.5% sodium deoxycholate, 0.1% SDS) supplemented with complete protease inhibitor cocktail (Roche Applied Science) and phosphatase inhibitors 10 mM NaF, 1 mM Na3VO4, 1 mM sodium pyrophosphate and 10 mM beta-glycerophosphate. Protein concentration was determined using a Bradford Protein Assay (Biorad).

SK-MEL-23 = test: Caspase-3/7 dye tumor cell apoptosis after MART-1 T cell attack, SK-MEL-23; type: cell-based, human; details: combined with TRAF2 inactivation; neutralizing TNF antibody (FIG. 6B)
Experimental: as §1

BLM [3] = test: T cell cytotoxicity assay of BLM clones; type: cell-based, human; details: wildtype and TRAF2-deficient BLM clones in vitro (FIG. 11F)
Experimental: as §1

D10 melanoma cells = test: T cell cytotoxicity assay with MART-1 T cells; type: cell-based, human
Experimental: 1.2×10^5 tumor cells were seeded per well in 12-well culture plates (Greiner). CD8 T cells were admixed in serial dilutions (two-fold, starting at a 1:1 ratio). After 24 hours, T cells were washed away. After a further 4 days, plates were fixed and stained for 1 hour using a crystal violet solution containing 0.1% crystal violet (Sigma) and 50% methanol (Honeywell). For quantification, remaining crystal violet was solubilized in 10% acetic acid (Sigma). Absorbance of this solution was measured on an Infinite 200 Pro spectrophotometer (Tecan) at 595 nm. In select experiments, tumor viability data was assessed with CellTiter-Blue (Promega) following manufacturer's instructions. In indicated experiments, 1 uM of birinapant (Selleck Chemicals) in DMSO (Sigma) was added during co-cultures. For Incucyte (Incucyte Zoom, Essen Bioscience) experiments, 5×10^3 tumor cells were seeded per well in 96-well culture plates (Greiner). CD8 T cells were admixed in indicated ratios and a Caspase-3/7 dye (Essen Bioscience) was added. Growth of these co-cultures was followed for 48 hours. […] In indicated experiments, enavatuzumab (indicated concentrations; Creative Biolabs) in the presence or absence of protein G (50 μg/mL; Thermo Fisher Scientific) was added. To cluster enavatuzumab, cells were pretreated for 1 hour with enavatuzumab, then protein G was added for a further 7 hours. Then, CD8 T cells were added to the tumor cells for a further 16 hours.

D10 = test: NSG murine xenograft of D10 cells with adoptive cell transfer; type: in vivo, mouse; details: anti-TNF antibody injected (FIG. 4C, D)
Experimental: For xenograft studies, 1×10^6 D10 or BLM tumor cells were admixed with Matrigel (Corning) and injected subcutaneously into NSG-β2M^null mice (The Jackson Laboratory). Growth was monitored three times per week with calipers, and tumor size was calculated using the following formula: ½×length (mm)×width (mm). When tumors reached indicated sizes, mice were randomized over different treatment groups in a blinded fashion and were administered 5×10^6 human CD8 T cells, intravenously in the tail vein. In vivo persistence of T cells was stimulated by administering 100.000 U IL-2 (Proleukin, Novartis) intraperitoneally daily for three consecutive days. In selected experiments, birinapant (MedChem Express) was administered intraperitoneally once every three days. Birinipant was formulated at 3 mg/ml in 12.5% captisol (CyDex Pharmaceuticals) in water adjusted to pH 4 with hydrochloric acid. […] In selected experiments, the PD-1-blocking antibody nivolumab (Slotervaart Hospital) was given once weekly (5 mg/kg). For studies in immunocompetent mice, 3×10^5 D4M.3A cells were injected subcutaneously into C57BI/6J mice (Janvier) and tumor growth was monitored three times per week with calipers.

TRAF2 = test: Western blot analysis of TRAF2 in treated D10 melanoma cells; type: cell-based, human
Experimental: 1.2×10^5 tumor cells were seeded per well in 12-well culture plates (Greiner). CD8 T cells were admixed in serial dilutions (two-fold, starting at a 1:1 ratio). After 24 hours, T cells were washed away. After a further 4 days, plates were fixed and stained for 1 hour using a crystal violet solution containing 0.1% crystal violet (Sigma) and 50% methanol (Honeywell). For quantification, remaining crystal violet was solubilized in 10% acetic acid (Sigma). Absorbance of this solution was measured on an Infinite 200 Pro spectrophotometer (Tecan) at 595 nm. In select experiments, tumor viability data was assessed with CellTiter-Blue (Promega) following manufacturer's instructions. In indicated experiments, 1 uM of birinapant (Selleck Chemicals) in DMSO (Sigma) was added during co-cultures. […]
as §2, with “Cells” for “To prepare lysates, snapfrozen tumor piecesd”, “were” for “were weighed and”, “(Biorad). […] Western blots were then incubated in SuperSignal West Dura Extended Duration Substrate (Thermo Scientific) and luminescence was captured on high performance autoradiography films (Amersham). […]” for “(Biorad).”

[4] = tested on: panel of 38 human tumor cell lines; details: cited from earlier work

Molecule: CC[C@H](NC(=O)[C@H](C)NC)C(=O)N1C[C@@H](O)C[C@H]1Cc1c(-c2[nH]c3cc(F)ccc3c2C[C@@H]2C[C@H](O)CN2C(=O)[C@H](CC)NC(=O)[C@H](C)NC)[nH]c2cc(F)ccc12 [birinapant, (2S)—N-[(2S)-1-[(2R,4S)-2-[[6-fluoro-2-[6-fluoro-3-[[(2R,4S)-4-hydroxy-1-[(2S)-2-[[(2S) (methylamino)propanoyl]amino]butanoyl]pyrrolidin-2-yl]methyl]-1H-indol-2-yl]-1H-indolyl]methyl]-4-hydroxypyrrolidin-1-yl]-1-oxobutan-2-yl]-2-(methylamino)propanamide]
- degradation of BIRC2/3 protein products (cIAP1/2) (cIAP1/2): known to degrade both BIRC2/3 protein products
- tumor cell survival, sgTRAF2+DMSO vs. sgTRAF2+Bir ([1]; MART-1 T cell cytotoxicity assay, p<0.001 (FIG. 6A)): significant for all cell lines
- sensitivity to T cell killing in combination with TRAF2 deletion ([1]; all tested tumor cell lines (FIG. 6A)): strong synergy between TRAF2 deletion and pharmaceutical targeting of cIAP1/2 in all tested tumor cell lines
- tumor control (BLM [2]; TRAF2 KO tumors treated with birinapant (FIG. 6E)): better tumor control when compared to control tumors
- tumor volume and survival (BLM [2]; TRAF2 genetic inactivation plus birinapant, ACT with MART-1 T cells (FIG. 6D)): induced both a reduction in tumor volume and extended survival
- sensitivity to T cell-derived TNF (SK-MEL-23): induced a de novo sensitivity to T cell-derived TNF in SK-MEL-23
- response to T cells, TRAF2 deletion plus cIAP1/2 inhibition (BLM [3]): synergistic response
- sensitivity to T cell killing in combination with TRAF2 inactivation (D10 melanoma cells; D10 cells sgCtrl or sgTRAF2, with or without birinapant (FIG. 11D)): synergized with TRAF2 inactivation in inducing sensitivity to T cell killing

Molecule: anti-PD-1: PD-1-blocking antibody nivolumab given once weekly (5 mg/kg)
- tumor control and overall survival (BLM [2]; anti-PD-1 added to TRAF2 KO plus birinapant (FIG. 6E)): superior tumor control, improving overall survival
- rejection of tumors (BLM [2]; anti-PD-1 alone, wildtype BLM tumors (FIG. 6E)): failed to affect rejection of VVT tumors
- intratumoral TNF after ICB (BLM [2]; non-responding setting (FIG. 11I)): failed to see an upregulation of TNF after ICB

Molecule: infliximab: TNF blocking antibody
- tumor control of TRAF2-deficient tumors after ACT with MART-1 T cells (D10): this tumor control was dependent on TNF

B1: enavatuzumab: agonistic anti-Fn14 antibody (Creative Biolabs) (antibody, chains of the INN, looked up, V domains shown)
VH: EVQLVESGGGLVQPGGSLRLSCAASGFTFSSYWMSWVRQAPGKGLEWVAEIRLKSDNYATHYAESVKGRFTISRDDSKNSLYLQMNSLRAEDTAVYYCTGYYADAMDYWGQGTLVTVSS
VL: DIQMTQSPSSLSASVGDRVTITCRASQSVSTSSYSYMHWYQQKPGKAPKLLIKYASNLESGVPSRFSGSGSGTDFTLTISSLQPEDFATYYCQHSWEIPYTFGGGTKVEIK
- sensitivity to T cell cytotoxicity (D10 melanoma cells; clustered with protein G, D10 and SK-MEL-147, 1:8 T cell:tumor cell ratio (FIG. 3J, 9C)): induced sensitivity to T cell cytotoxicity in two melanoma cell lines
- dependence of sensitization on T cell-derived TNF (D10 melanoma cells; neutralization with anti-TNF antibody (FIG. 9D)): dependent on T cell-derived TNF
- dependence of sensitization on TRAF2 (D10 melanoma cells; wildtype or TRAF2-deficient tumor cells (FIG. 3J)): sensitization by enavatuzumab was dependent on TRAF2
- degradation of TRAF2 (TRAF2; D10 melanoma cells treated 8 hours, presence or absence of protein G (FIG. 3I)): caused degradation of TRAF2, but only upon receptor clustering by the addition of protein G

B2: Fn14 agonistic antibody: humanized anti-Fn14 agonistic antibody described by Michaelson et al. (2011) (antibody, chains of the INN, looked up, V domains shown)
VH: B1 VH
VL: B1 VL
- cell lines with growth inhibition [4]: approximately 50%

B3: TWEAK: ligand of Fn14 (TNF-like weak inducer of apoptosis); recombinant TWEAK (Peprotech) (protein)
chain: SAPKGRKTRARRAIAAHYEVHPRPGQDGAQAGVDGTVSGWEEARINSSSPLRYNRQIGEFIVTRAGLYYLYCQVHFDEGKAVYLKLDLLVDGVLALRCLEEFSATAASSLGPQLRLCQVSGLLALRPGSSLRIRTLPWAHLKAAPFLTYFGLFQVH
- sensitization of tumor cells to T cell killing (D10 melanoma cells; 250 ng/mL TWEAK during exposure to MART-1 T cells (FIG. 3H)): sensitized tumor cells to T cell killing
- degradation of TRAF2 (TRAF2; D10 melanoma cells treated 8 hours with recombinant human TWEAK (FIG. 3G)): led to the degradation of TRAF2
